From patent publication US20230287416A1, “COMBINATORY TREATMENT OF SMA WITH SARNA AND MRNA MODULATORS” (RACTIGEN THERAPEUTICS, priority 2020, published 2023)

Legend:
Format in all cases: cell-based, human
SMN2 mRNA = assay: RT-qPCR of SMN2FL and SMN2 Δ7 mRNA in GM03813 cells; conditions: for maximum increase of SMN2FL (ceiling effect): GM03813, 72 h (Example 1)
Excerpt: “GM03813 cells” refers to fibroblast cells provided by Coriell Institute for Medical Research. This cell line is described as SPINAL MUSCULAR ATROPHY, TYPE II; SMA2 SURVIVAL OF MOTOR NEURON 1, TELOMERIC; SMN1. The relevant gene is SMN1; the chromosomal location is 5q12.2-q13.3, the allelic variant is described as 1 exons 7 and 8 deleted, SPINAL MUSCULAR ATROPHY, TYPE I; and the identified mutation: is EX7-8DEL.
Seventy-two hours later, total cellular RNA was isolated from the treated cells and reverse transcribed into cDNA. SMN2 mRNA expression was assessed with RT-qPCR using primer pairs specific for SMN2FL or SMN2 Δ7. SMN2 mRNA expression was also assessed by semi-quantitative RT-PCR using a primer pair that amplifies both SMN2FL and SMN2 Δ7 followed by DdeI digestion (PCR/digestion). […] After digestion, both bands were reduced by 115 bp, resulting in two products: 392 bp (SMN2FL) and 338 bp (SMN2 Δ7) as shown on the gel of FIG. 3D. FIG. 3A-3D show dose-dependent changes in SMN2FL and SMNΔ7 mRNA as assessed by RT-qPCR and PCR/digestion respectively. FIG. 3E-3G are graphic plots of data from quantitating the intensity of bands in FIG. 3D.
(§1) SMA patient derived fibroblasts were obtained from Coriell Institute (Camden, N.J., USA), including GM00232 (SMA type I with 2 copies of SMN2 gene) and GM03813 (SMA type II with 3 copies of SMN2 gene). These cells were cultured at 5% C02 and 37° C. in modified MEM medium (Gibco, Thermo Fisher Scientific, Carlsbad, Calif.) supplemented with 15% bovine calf serum (Sigma-Aldrich), 1% NEAA (Gibco) and 1% penicillin/streptomycin (Gibco). To transfect oligonucleotides including saRNAs, siRNA and ASO, cells were seeded into 6-well plates at a density of 1×10^5 cells/well and were transfected with oligonucleotides at different concentrations using RNAiMax (Invitrogen, Carlsbad, Calif.) according to the reverse transfection protocol provided by the manufacturer for 72 hours (unless otherwise specified). For Risdiplam treatment of cells, Risdiplam (HY-109101, MedChem Express Company, Monmouth Junction, N.J., USA) dissolved in DMSO was added directly to cells at desired concentration for 72 hours unless specified otherwise.
For RNA isolation from cultured cells, total cellular RNA was isolated from treated cells using an RNeasy Plus Mini kit (Qiagen, Hilden, Germany) according to its manual. To isolated RNA from animal tissues, tissues were harvested and stored at RNA later (AM7021, Thermo Fisher). Total RNA was then isolated using MagPure Total RNA Micro LQ kit (Magen, R6621, China) by auto-pure96 machine (ALLSHENG, China). The resultant RNA (1 μg) was reverse transcribed into cDNA by using a PrimeScript RT kit containing gDNA Eraser (Takara, Shlga, Japan). The resultant cDNA was amplified in an ABI 7500 Fast Real-time PCR System (Applied Biosystems; Foster City, Calif.) using SYBR Premix Ex Taq 11 (Takara, Shlga, Japan) reagents and primers which specifically amplified full-length (SMN2FL) or A7 SMN2 mRNA (SMN2 Δ7) (FIG. 1). The reaction conditions were: 95° C. for 3 seconds (1 cycle) and 60° C. for 30 seconds (40 cycles). Amplification of TBP gene served as an internal control.

SMN protein [1] = assay: Western blotting of SMN protein in GM00232 cells; conditions: GM00232, 72 h
Method: To further verify the effect of ASO-10-27 and DS06-0004 alone or in combination on SMN2 gene expression, western blotting assays were performed in GM00232 cells transfected individually or in combination with ASO-10-27 and DS06-0004. […] DS06-0004 at 1 nM, 5 nM and 25 nM increased SMN2FL by 1.2, 1.3 and 1.7 fold, respectively (FIGS. 5B and 5C).
as §1
(§2) Proteins were harvested from transfected cells using 1×RIPA Buffer including protease inhibitors and detected the protein concentration by BCA protein assay kits (Beyotime, P0010, China). To isolated proteins from animal tissues, tissues were harvested and lysed using 1×RIPA Buffer. Protein concentrations were measured by using BCA protein assay kits. Protein electrophoresis was performed (10 ug protein/well) with the use of a sodium dodecyl sulfate polyacrylamide gel electrophoresis (PAGE) gel, which was then transferred to a polyvinylidene difluoride (0.45 μm PVDF) membrane. The membranes were blotted with primary anti-SMN (CST, 19276, USA) or anti-α/β-Tubulin (CST, 2148s, USA) antibodies at 4° C. overnight. After three washes with TBST buffer, the membranes were incubated with anti-IgG, horseradish peroxidase-conjugated secondary antibodies (CST, 7074s and 7076s, USA) for 1 h at room temperature (RT). The membranes were then washed with TBST buffer three times for 10 min each and analyzed by Image Lab (BIO-RAD, Chemistry Doctm MP Imaging System). Band densities of SMN protein and α/β-Tubulin were quantified using ImageJ software.

SMN protein [2] = assay: Western blotting of SMN protein in GM03813 cells; conditions: GM03813, 72 h
Method: To further verify the effect of ASO-10-27 and DS06-0004 alone or in combination on SMN2 gene expression, western blotting assays were performed in GM03813 cells transfected individually or in combination with ASO-10-27 and DS06-0004. […] DS06-0004 at 1 nM, 5 nM and 25 nM increased SMN2FL by 1.5-, 1.5- and 1.6-fold, respectively (FIGS. 7B and 7C).
as §1, §2

[3] = GM03813, 72 h, 100 nM (Example 1)
[4] = GM03813, 72 h, 1 nM (Example 4, FIG. 6A)
[5] = GM03813, 72 h, 1 nM (Example 8)
[6] = GM03813, 72 h, 1 nM to 50 nM (Example 1, FIG. 3B)
[7] = GM03813, 72 h, 5 nM (Example 4)
[8] = GM03813, 72 h, 5 nM (Example 8)
[9] = GM03813, 72 h, 25 nM (Example 4)
[10] = GM03813, 72 h, 25 nM (Example 8)
[11] = GM03813, 72 h, alone or in combination at 10 nM, RT-qPCR (Example 10, FIG. 12A)

Which results are given for `Cc1cn2nc(-c3cc(=O)n4cc(N5CCNC6(CC6)C5)ccc4n3)cc(C)c2n1` [Risdiplam]?
maximum increase of SMN2FL (ceiling effect) (SMN2 mRNA): ~2 fold; SMN2FL mRNA fold change (SMN2 mRNA; GM03813, 72 h, 50 nM (Example 8, FIG. 10A-10C)): 1.0 fold; SMN2 Δ7 mRNA change (SMN2 mRNA; GM03813, 72 h, 50 nM, 250 nM and 1250 nM (Example 8)): decrease; decrease of SMN2 Δ7 mRNA (SMN2 mRNA; [3]): 36%; SMN2FL mRNA fold change (SMN2 mRNA; GM03813, 72 h, 100 nM (Example 1, FIG. 3C)): 1.2 fold; SMN2FL mRNA fold change (SMN2 mRNA; GM03813, 72 h, 250 nM (Example 8)): 1.4 fold; decrease of SMN2 Δ7 mRNA (SMN2 mRNA; GM03813, 72 h, 1000 nM (Example 1)): 98%; SMN2FL mRNA fold change (SMN2 mRNA; GM03813, 72 h, 1000 nM (Example 1, FIG. 3C)): 1.8 fold; SMN2FL mRNA fold change (SMN2 mRNA; GM03813, 72 h, 1250 nM (Example 8)): 2.1 fold; SMN protein fold change (SMN protein [1]; 50 nM (Example 7, FIG. 9)): 1.7 fold; SMN protein fold change (SMN protein [1]; 250 nM (Example 7)): 1.9 fold; SMN protein fold change (SMN protein [1]; 1250 nM (Example 7)): 2.6 fold; SMN protein fold change (SMN protein [2]; 50 nM (Example 9, FIG. 11)): 1.1 fold; SMN protein fold change (SMN protein [2]; 250 nM (Example 9)): 1.7 fold

“DS06-0004: saRNA targeting SMN2 promoter at -281; SEQ ID NO: 476/477 (Table 8: SEQ ID NO: 131/288) (chain 1 AGACGAGGCCUAAGCAACATT; chain 2 UGUUGCUUAGGCCUCGUCUTT; chemistry not given here)” was tested. Which “SMN2 Δ7 mRNA fold change” value (SMN2 mRNA; GM03813, 72 h, 1 nM (Example 4)) did it give?
The value was 2.5 fold.

What about the “SMN2FL mRNA fold change” value (SMN2 mRNA; [4]) of the same molecule?
The value was 2.1 fold.

What about the “SMN2FL mRNA fold change” value (SMN2 mRNA; [5]) of the same molecule?
Its value is 1.7 fold.

And the “SMN2 Δ7 mRNA fold change” value (SMN2 mRNA; [5])?
Its value is 1.8 fold.

What about the “highest fold change of SMN2FL mRNA” value (SMN2 mRNA; [6]) of the same molecule?
Its value is 2.9 fold.

And the “highest fold change of SMN2 Δ7 mRNA” value (SMN2 mRNA; [6])?
Its value is 2.7 fold.

And the “SMN2FL mRNA fold change” value (SMN2 mRNA; [7])?
The value was 2.6 fold.

What about the “SMN2 Δ7 mRNA fold change” value (SMN2 mRNA; [7]) of the same molecule?
Its value is 2.5 fold.

What about the “SMN2FL mRNA fold change” value (SMN2 mRNA; [8]) of the same molecule?
The value was 2.2 fold.

And the “SMN2 Δ7 mRNA fold change” value (SMN2 mRNA; [8])?
The value was 2.3 fold.

What about the “SMN2FL mRNA fold change” value (SMN2 mRNA; [9]) of the same molecule?
Its value is 2.2 fold.

And the “SMN2 Δ7 mRNA fold change” value (SMN2 mRNA; [9])?
Its value is 2.1 fold.

What about the “SMN2FL mRNA fold change” value (SMN2 mRNA; [10]) of the same molecule?
The value was 2.3 fold.

And the “SMN2 Δ7 mRNA fold change” value (SMN2 mRNA; [10])?
The value was 2.3 fold.

And the “SMN2 mRNA expression” value (SMN2 mRNA; [3])?
Its value is “did not further increase”.

What about the “SMN protein fold change” value (SMN protein [1]; 1 nM (Example 3, FIG. 5)) of the same molecule?
Its value is 1.2 fold.

What about the “SMN protein fold change” value (SMN protein [1]; 5 nM (Example 3)) of the same molecule?
Its value is 1.3 fold.

And the “SMN protein fold change” value (SMN protein [1]; 25 nM (Example 3))?
The value was 1.7 fold.

What about the “SMN protein fold change” value (SMN protein [2]; 1 nM (Example 5, FIG. 7)) of the same molecule?
Its value is 1.5 fold.

And the “SMN protein fold change” value (SMN protein [2]; 5 nM (Example 5))?
Its value is 1.5 fold.

And the “SMN protein fold change” value (SMN protein [2]; 25 nM (Example 5))?
The value was 1.6 fold.

Which “maximum increase of SMN2FL (ceiling effect)” value (SMN2 mRNA) does the source give for Nusinersen [ASO-10-27] here?
Its value is ~2 fold.

And the “SMN2FL mRNA fold change” value (SMN2 mRNA; GM03813, 72 h, 1 nM (Example 1, FIG. 3A))?
Its value is 1.5 fold.

And the “SMN2FL mRNA fold change” value (SMN2 mRNA; [4])?
The value was 1.2 fold.

What about the “SMN2 Δ7 mRNA change” value (SMN2 mRNA; GM03813, 72 h, 1 nM, 5 nM and 25 nM (Example 4)) of the same molecule?
The value was “decrease”.

What about the “SMN2 Δ7 mRNA change” value (SMN2 mRNA; GM03813, 72 h, 5 nM (Example 1)) of the same molecule?
Its value is “decrease”.

And the “SMN2FL mRNA fold change” value (SMN2 mRNA; [7])?
The value was 2.1 fold.

What about the “SMN2FL mRNA fold change” value (SMN2 mRNA; GM03813, 72 h, 5 nM, peak increase (Example 1, FIG. 3A)) of the same molecule?
Its value is 2.0 fold.

And the “SMN2FL mRNA fold change” value (SMN2 mRNA; [9])?
The value was 2.1 fold.

What about the “SMN2FL mRNA fold change” value (SMN2 mRNA; [11]) of the same molecule?
The value was 1.4 fold.

What about the “SMN2 Δ7 mRNA fold change” value (SMN2 mRNA; [11]) of the same molecule?
The value was 0.3 fold.

What about the “SMN protein fold change” value (SMN protein [1]; 1 nM (Example 3, FIG. 5)) of the same molecule?
Its value is 1.4 fold.

What about the “SMN protein fold change” value (SMN protein [1]; 5 nM (Example 3)) of the same molecule?
The value was 2.3 fold.

What about the “SMN protein fold change” value (SMN protein [1]; 25 nM (Example 3)) of the same molecule?
Its value is 2.9 fold.

What about the “SMN protein fold change” value (SMN protein [2]; 1 nM (Example 5, FIG. 7)) of the same molecule?
The value was 1.2 fold.

What about the “SMN protein fold change” value (SMN protein [2]; 5 nM (Example 5)) of the same molecule?
Its value is 1.5 fold.

And the “SMN protein fold change” value (SMN protein [2]; 25 nM (Example 5))?
The value was 1.9 fold.

What about the “SMN protein fold change” value (SMN protein [2]; alone or in combination at 10 nM (Example 10, FIG. 12D-12E)) of the same molecule?
Its value is 2.3 fold.
